Assays:
Assay in all cases: radiometric filter-binding kinase assay, Kinase HotSpot
Conditions in all cases: compound 0.5 µM; ATP 10 µM
[1] = target: MKNK2 (human) (UniProt Q9HBH9)
[2] = target: CDK9 CCNT1 (human) (UniProt P50750+O60563)
[3] = target: ITK (human) (UniProt Q08881)
[4] = target: BMX (human) (UniProt P51813)
[5] = target: PRKCZ (human) (UniProt Q05513)
[6] = target: PRKD1 (human) (UniProt Q15139)
[7] = target: YES1 (human) (UniProt P07947)
[8] = target: ABL2 (human) (UniProt P42684)
[9] = target: PRKCD (human) (UniProt Q05655)
[10] = target: TAOK2 (human) (UniProt Q9UL54)
[11] = target: DSTYK (human) (UniProt Q6XUX3)
[12] = target: GRK7 (human) (UniProt Q8WTQ7)
[13] = target: MARK3 (human) (UniProt P27448)
[14] = target: HIPK4 (human) (UniProt Q8NE63)
[15] = target: NUAK1 (human) (UniProt O60285)
[16] = target: EPHA6 (human) (UniProt Q9UF33)
[17] = target: AXL (human) (UniProt P30530)
[18] = target: DYRK2 (human) (UniProt Q92630)
[19] = target: LTK (human) (UniProt P29376)
[20] = target: NEK1 (human) (UniProt Q96PY6)
[21] = target: TAOK1 (human) (UniProt Q7L7X3)
[22] = target: PKN2 (human) (UniProt Q16513)
[23] = target: MAPK10 (human) (UniProt P53779)
[24] = target: TTK (human) (UniProt P33981)
[25] = target: PTK6 (human) (UniProt Q13882)
[26] = target: CHEK2 (human) (UniProt O96017)
[27] = target: CSK (human) (UniProt P41240)
[28] = target: NUAK2 (human) (UniProt Q9H093)
[29] = target: PAK7 (human) (UniProt Q9P286)
[30] = target: MAP3K2 (human) (UniProt Q9Y2U5)
[31] = target: CAMKK1 (human) (UniProt Q8N5S9)
[32] = target: BRAF (human) (UniProt P15056)
[33] = target: NTRK2 (human) (UniProt Q16620)
[34] = target: PRKD2 (human) (UniProt Q9BZL6)
[35] = target: JAK1 JH1 catalytic (human) (UniProt P23458)
[36] = target: PRKCA (human) (UniProt P17252)
[37] = target: CHEK1 (human) (UniProt O14757)
[38] = target: EPHB2 (human) (UniProt P29323)
[39] = target: CLK3 (human) (UniProt P49761)
[40] = target: MAP3K9 (human) (UniProt P80192)
[41] = target: CSNK1G1 (human) (UniProt Q9HCP0)
[42] = target: CDK2 CCNE1 (human) (UniProt P24941+P24864)

Sequence of AXL (human) (P30530 whole entry, looked up): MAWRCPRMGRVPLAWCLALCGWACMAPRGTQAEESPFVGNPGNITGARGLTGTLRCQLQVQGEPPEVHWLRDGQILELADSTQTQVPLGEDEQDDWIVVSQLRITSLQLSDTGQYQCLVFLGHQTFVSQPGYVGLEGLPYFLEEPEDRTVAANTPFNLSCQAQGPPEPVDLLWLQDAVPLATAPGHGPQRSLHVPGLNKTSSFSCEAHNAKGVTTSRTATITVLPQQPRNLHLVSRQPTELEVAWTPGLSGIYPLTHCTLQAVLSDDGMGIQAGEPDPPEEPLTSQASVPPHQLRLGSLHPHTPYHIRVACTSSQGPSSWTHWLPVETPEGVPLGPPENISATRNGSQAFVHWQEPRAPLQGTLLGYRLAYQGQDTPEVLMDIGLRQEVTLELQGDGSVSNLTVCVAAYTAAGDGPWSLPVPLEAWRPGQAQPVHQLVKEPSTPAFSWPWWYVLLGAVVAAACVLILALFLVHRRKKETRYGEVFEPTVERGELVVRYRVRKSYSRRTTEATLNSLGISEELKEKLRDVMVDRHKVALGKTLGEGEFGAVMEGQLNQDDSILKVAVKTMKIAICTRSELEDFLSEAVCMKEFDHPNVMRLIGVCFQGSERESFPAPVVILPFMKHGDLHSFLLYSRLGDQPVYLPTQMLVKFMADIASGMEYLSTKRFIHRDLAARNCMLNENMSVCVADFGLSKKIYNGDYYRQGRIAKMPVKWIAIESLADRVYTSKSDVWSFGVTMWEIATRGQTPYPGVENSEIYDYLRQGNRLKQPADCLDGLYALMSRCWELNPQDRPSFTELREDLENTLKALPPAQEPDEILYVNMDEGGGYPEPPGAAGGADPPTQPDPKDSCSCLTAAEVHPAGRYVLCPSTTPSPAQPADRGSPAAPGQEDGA
Sequence of HIPK4 (human) (Q8NE63 whole entry, looked up): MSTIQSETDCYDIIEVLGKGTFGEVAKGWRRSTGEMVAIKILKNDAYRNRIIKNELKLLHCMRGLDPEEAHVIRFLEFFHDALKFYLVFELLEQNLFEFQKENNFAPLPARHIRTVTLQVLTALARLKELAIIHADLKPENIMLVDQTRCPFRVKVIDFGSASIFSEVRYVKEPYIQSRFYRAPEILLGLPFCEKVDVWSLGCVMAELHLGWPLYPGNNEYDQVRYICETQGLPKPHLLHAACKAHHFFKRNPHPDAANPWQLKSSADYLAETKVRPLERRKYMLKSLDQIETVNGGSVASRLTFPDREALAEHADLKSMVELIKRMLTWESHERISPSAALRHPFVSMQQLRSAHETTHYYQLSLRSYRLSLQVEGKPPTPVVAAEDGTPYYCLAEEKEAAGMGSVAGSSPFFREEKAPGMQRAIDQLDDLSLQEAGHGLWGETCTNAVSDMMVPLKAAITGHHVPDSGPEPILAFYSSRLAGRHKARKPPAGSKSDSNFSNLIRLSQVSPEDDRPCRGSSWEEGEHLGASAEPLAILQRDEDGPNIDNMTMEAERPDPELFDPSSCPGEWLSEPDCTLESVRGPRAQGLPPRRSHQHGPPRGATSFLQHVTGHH
Sequence of DSTYK (human) (Q6XUX3 whole entry, looked up): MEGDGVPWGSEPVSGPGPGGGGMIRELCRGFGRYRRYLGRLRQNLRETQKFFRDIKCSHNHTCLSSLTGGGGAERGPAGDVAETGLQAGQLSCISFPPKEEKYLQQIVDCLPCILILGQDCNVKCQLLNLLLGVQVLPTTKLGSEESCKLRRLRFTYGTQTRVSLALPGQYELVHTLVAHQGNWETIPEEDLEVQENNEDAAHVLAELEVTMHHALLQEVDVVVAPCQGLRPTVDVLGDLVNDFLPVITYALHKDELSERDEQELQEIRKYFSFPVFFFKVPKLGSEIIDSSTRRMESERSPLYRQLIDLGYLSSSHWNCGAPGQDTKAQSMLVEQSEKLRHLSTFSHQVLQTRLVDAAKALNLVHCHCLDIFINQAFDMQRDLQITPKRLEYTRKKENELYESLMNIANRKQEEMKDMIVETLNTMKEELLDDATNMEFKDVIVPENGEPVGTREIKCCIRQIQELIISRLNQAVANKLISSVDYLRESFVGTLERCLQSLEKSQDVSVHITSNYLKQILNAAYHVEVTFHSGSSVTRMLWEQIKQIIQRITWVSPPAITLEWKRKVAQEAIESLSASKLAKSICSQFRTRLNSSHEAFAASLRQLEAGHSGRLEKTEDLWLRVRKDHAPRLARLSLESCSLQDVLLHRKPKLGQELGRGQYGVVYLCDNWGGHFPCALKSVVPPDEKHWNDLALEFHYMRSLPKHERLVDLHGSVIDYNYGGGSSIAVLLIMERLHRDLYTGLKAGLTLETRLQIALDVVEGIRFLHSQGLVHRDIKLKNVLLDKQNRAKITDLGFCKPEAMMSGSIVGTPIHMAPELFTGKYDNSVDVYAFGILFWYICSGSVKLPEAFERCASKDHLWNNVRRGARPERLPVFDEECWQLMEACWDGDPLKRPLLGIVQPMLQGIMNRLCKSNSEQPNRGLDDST
Sequence of TAOK1 (human) (Q7L7X3 whole entry, looked up): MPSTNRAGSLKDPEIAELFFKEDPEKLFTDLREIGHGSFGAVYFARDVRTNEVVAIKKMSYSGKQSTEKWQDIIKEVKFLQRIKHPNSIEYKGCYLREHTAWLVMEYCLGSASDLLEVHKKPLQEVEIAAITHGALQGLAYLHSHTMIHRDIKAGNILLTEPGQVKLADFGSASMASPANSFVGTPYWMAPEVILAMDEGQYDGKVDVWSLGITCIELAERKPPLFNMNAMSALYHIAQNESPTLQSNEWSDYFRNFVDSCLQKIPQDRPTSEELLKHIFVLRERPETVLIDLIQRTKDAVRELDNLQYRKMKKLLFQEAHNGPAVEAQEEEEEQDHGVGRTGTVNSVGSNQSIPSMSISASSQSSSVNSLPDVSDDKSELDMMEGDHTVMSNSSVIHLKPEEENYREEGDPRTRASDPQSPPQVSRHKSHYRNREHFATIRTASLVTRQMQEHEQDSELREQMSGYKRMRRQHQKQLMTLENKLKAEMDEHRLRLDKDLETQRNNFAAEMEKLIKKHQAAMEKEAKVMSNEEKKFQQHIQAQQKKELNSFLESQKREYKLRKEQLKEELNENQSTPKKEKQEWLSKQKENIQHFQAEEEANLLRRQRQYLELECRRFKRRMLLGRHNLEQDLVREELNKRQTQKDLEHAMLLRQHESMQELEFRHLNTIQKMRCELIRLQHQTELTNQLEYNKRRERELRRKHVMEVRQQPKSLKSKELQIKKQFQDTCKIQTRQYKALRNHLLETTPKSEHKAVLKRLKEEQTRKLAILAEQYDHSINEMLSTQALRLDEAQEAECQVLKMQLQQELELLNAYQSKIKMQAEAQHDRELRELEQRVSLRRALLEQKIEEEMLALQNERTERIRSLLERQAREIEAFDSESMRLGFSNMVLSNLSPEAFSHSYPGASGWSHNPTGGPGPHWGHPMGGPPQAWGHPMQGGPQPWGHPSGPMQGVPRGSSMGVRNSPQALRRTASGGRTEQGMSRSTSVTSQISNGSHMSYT
Sequence of PAK7 (human) (Q9P286 whole entry, looked up): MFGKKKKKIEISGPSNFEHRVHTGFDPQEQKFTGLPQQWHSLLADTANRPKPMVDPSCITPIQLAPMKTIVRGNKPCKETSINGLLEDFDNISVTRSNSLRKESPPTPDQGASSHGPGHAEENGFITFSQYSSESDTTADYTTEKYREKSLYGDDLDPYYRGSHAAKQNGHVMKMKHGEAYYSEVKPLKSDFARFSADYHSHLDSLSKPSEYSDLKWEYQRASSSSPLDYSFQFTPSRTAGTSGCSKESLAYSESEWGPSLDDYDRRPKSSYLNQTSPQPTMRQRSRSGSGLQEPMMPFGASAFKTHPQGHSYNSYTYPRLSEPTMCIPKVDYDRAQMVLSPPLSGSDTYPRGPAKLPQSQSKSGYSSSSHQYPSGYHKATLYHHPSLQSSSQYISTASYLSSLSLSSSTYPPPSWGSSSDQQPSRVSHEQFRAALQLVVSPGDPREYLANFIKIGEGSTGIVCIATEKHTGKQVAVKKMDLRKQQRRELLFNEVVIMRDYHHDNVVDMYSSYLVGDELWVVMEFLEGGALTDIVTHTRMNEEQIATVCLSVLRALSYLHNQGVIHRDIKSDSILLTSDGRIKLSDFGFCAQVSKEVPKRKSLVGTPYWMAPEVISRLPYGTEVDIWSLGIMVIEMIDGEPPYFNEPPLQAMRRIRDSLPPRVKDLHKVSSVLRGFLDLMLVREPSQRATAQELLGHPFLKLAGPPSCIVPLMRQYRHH
Sequence of NUAK2 (human) (Q9H093 whole entry, looked up): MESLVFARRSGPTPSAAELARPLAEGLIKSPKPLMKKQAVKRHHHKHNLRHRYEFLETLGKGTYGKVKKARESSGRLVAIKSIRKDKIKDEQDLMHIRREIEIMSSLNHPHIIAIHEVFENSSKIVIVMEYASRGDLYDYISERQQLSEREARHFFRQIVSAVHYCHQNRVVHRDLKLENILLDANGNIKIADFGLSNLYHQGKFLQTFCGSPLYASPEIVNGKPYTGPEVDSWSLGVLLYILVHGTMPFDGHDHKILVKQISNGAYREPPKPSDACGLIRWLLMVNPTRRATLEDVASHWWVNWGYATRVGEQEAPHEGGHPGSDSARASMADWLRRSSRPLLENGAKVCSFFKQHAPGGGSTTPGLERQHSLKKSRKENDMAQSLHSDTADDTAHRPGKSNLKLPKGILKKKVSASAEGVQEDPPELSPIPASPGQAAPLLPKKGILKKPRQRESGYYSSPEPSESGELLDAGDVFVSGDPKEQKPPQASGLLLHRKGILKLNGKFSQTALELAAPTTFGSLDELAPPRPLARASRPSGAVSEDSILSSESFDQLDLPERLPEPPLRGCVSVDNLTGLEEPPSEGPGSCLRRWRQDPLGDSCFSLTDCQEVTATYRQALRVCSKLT

Structure (SMILES): CCN(CC)CCNC(=O)c1c(C)[nH]c(/C=C2\C(=O)Nc3ccc(F)cc32)c1C
- residual activity [1]: 99.3%
- residual activity [2]: 88.7%
- residual activity [3]: 64.3%
- residual activity [4]: 99%
- residual activity [5]: 91.7%
- residual activity [6]: 20%
- residual activity [7]: 5.91%
- residual activity [8]: 61.8%
- residual activity [9]: 95.1%
- residual activity [10]: 90.3%
- residual activity [11]: 111%
- residual activity [12]: 71.3%
- residual activity [13]: 30.4%
- residual activity [14]: 74.7%
- residual activity [15]: 2.75%
- residual activity [16]: 29.5%
- residual activity [17]: 27.4%
- residual activity [18]: 82.6%
- residual activity [19]: 34.4%
- residual activity [20]: 72.6%
- residual activity [21]: 71.5%
- residual activity [22]: 89.1%
- residual activity [23]: 99.5%
- residual activity [24]: 68%
- residual activity [25]: 84.5%
- residual activity [26]: 7.13%
- residual activity [27]: 90.2%
- residual activity [28]: 65%
- residual activity [29]: 81.6%
- residual activity [30]: 51.9%
- residual activity [31]: 52.1%
- residual activity [32]: 106%
- residual activity [33]: 9.78%
- residual activity [34]: 21.1%
- residual activity [35]: 71.9%
- residual activity [36]: 79.9%
- residual activity [37]: 29.2%
- residual activity [38]: 72.1%
- residual activity [39]: 105%

Structure (SMILES): c1ccc(-c2n[nH]cc2-c2ccnc3ccccc23)nc1
- residual activity [1]: 81.9%
- residual activity [2]: 80%
- residual activity [3]: 102%
- residual activity [4]: 89.2%
- residual activity [5]: 115%
- residual activity [6]: 63%
- residual activity [7]: 93.3%
- residual activity [8]: 67.8%
- residual activity [9]: 96.6%
- residual activity [10]: 96.8%
- residual activity [11]: 98.3%
- residual activity [12]: 102%
- residual activity [40]: 90.4%
- residual activity [13]: 87.5%
- residual activity [14]: 89.9%
- residual activity [41]: 92.2%
- residual activity [15]: 95.5%
- residual activity [16]: 98.8%
- residual activity [17]: 101%
- residual activity [18]: 113%
- residual activity [19]: 92.8%
- residual activity [42]: 91.3%
- residual activity [21]: 93%
- residual activity [22]: 91.4%
- residual activity [23]: 92.9%
- residual activity [24]: 97.4%
- residual activity [25]: 70.9%
- residual activity [26]: 96.6%
- residual activity [27]: 102%
- residual activity [28]: 135%
- residual activity [29]: 97.1%
- residual activity [30]: 91.2%
- residual activity [31]: 109%
- residual activity [32]: 95.7%
- residual activity [33]: 112%
- residual activity [34]: 66.9%
- residual activity [35]: 96.7%
- residual activity [36]: 98.5%
- residual activity [37]: 99.7%
- residual activity [38]: 103%
- residual activity [39]: 105%

Structure (SMILES): CCOC(=O)c1c(C)[nH]c(/C=C2\C(=O)Nc3ccccc32)c1C
- residual activity [1]: 87.4%
- residual activity [2]: 94.7%
- residual activity [3]: 86.3%
- residual activity [4]: 93.5%
- residual activity [5]: 97%
- residual activity [6]: 91.3%
- residual activity [7]: 68.3%
- residual activity [8]: 88.5%
- residual activity [9]: 91.6%
- residual activity [10]: 105%
- residual activity [11]: 90.8%
- residual activity [12]: 86.3%
- residual activity [40]: 61.6%
- residual activity [13]: 99.8%
- residual activity [14]: 90.2%
- residual activity [41]: 103%
- residual activity [15]: 62.3%
- residual activity [16]: 80%
- residual activity [17]: 88.9%
- residual activity [18]: 92.4%
- residual activity [19]: 66.9%
- residual activity [20]: 92.5%
- residual activity [42]: 95.6%
- residual activity [21]: 100%
- residual activity [22]: 92%
- residual activity [23]: 86.8%
- residual activity [24]: 96.6%
- residual activity [25]: 82.8%
- residual activity [26]: 70.5%
- residual activity [27]: 104%
- residual activity [28]: 128%
- residual activity [29]: 83.9%
- residual activity [30]: 108%
- residual activity [31]: 95.3%
- residual activity [32]: 96.7%
- residual activity [33]: 66.6%
- residual activity [34]: 97.1%
- residual activity [35]: 97.1%
- residual activity [37]: 89.4%
- residual activity [38]: 95.4%
- residual activity [39]: 100%

Structure (SMILES): CC#CC(=O)Nc1cc2c(Nc3ccc(F)c(Cl)c3)ncnc2cn1
- residual activity [1]: 66%
- residual activity [2]: 90.6%
- residual activity [3]: 76.3%
- residual activity [4]: 2.54%
- residual activity [5]: 114%
- residual activity [6]: 98.7%
- residual activity [7]: 82.3%
- residual activity [8]: 89.4%
- residual activity [9]: 99.8%
- residual activity [10]: 106%
- residual activity [11]: 91.1%
- residual activity [12]: 106%
- residual activity [40]: 95.8%
- residual activity [13]: 107%
- residual activity [14]: 99.7%
- residual activity [41]: 95.5%
- residual activity [15]: 98.1%
- residual activity [17]: 100%
- residual activity [18]: 91.3%
- residual activity [19]: 93%
- residual activity [20]: 105%
- residual activity [42]: 98.1%
- residual activity [21]: 104%
- residual activity [22]: 95%
- residual activity [23]: 85.4%
- residual activity [24]: 104%
- residual activity [25]: 56.8%
- residual activity [26]: 98.8%
- residual activity [27]: 100%
- residual activity [28]: 95.4%
- residual activity [29]: 102%
- residual activity [30]: 107%
- residual activity [31]: 124%
- residual activity [32]: 82.1%
- residual activity [33]: 100%
- residual activity [34]: 97.6%
- residual activity [35]: 104%
- residual activity [36]: 101%
- residual activity [37]: 106%
- residual activity [38]: 80.9%
- residual activity [39]: 47.1%

Structure (SMILES): Nc1cccc(-c2cc3c(Oc4cccc(O)c4)ncnc3[nH]2)c1
- residual activity [1]: 67.5%
- residual activity [2]: 63.2%
- residual activity [3]: 102%
- residual activity [4]: 24.3%
- residual activity [5]: 94%
- residual activity [6]: 94.4%
- residual activity [7]: 6.05%
- residual activity [8]: 1.4%
- residual activity [9]: 95.7%
- residual activity [10]: 81.4%
- residual activity [11]: 83.4%
- residual activity [12]: 102%
- residual activity [40]: 16.2%
- residual activity [13]: 77.5%
- residual activity [14]: 103%
- residual activity [41]: 102%
- residual activity [15]: 37%
- residual activity [17]: 75.9%
- residual activity [18]: 76.9%
- residual activity [19]: 16.8%
- residual activity [20]: 92.3%
- residual activity [42]: 90%
- residual activity [21]: 142%
- residual activity [22]: 72%
- residual activity [23]: 89.4%
- residual activity [24]: 104%
- residual activity [25]: 11.1%
- residual activity [26]: 75.8%
- residual activity [27]: 43.6%
- residual activity [28]: 90.3%
- residual activity [29]: 86.9%
- residual activity [30]: 86.9%
- residual activity [31]: 113%
- residual activity [32]: 53.2%
- residual activity [33]: 95.5%
- residual activity [34]: 81.7%
- residual activity [35]: 106%
- residual activity [36]: 95.6%
- residual activity [37]: 66.2%
- residual activity [38]: 40.7%
- residual activity [39]: 74%
